Data set [1] has as its target T1, Phosphatidylinositol 4,5-bisphosphate 3-kinase catalytic subunit alpha isoform (Homo sapiens, UniProt P42336). In words: Inhibition of human recombinant PI3Kalpha using PIP2 by Kinase-Glo Plus assay.
Target sequence in this assay (P42336 whole entry, canonical isoform): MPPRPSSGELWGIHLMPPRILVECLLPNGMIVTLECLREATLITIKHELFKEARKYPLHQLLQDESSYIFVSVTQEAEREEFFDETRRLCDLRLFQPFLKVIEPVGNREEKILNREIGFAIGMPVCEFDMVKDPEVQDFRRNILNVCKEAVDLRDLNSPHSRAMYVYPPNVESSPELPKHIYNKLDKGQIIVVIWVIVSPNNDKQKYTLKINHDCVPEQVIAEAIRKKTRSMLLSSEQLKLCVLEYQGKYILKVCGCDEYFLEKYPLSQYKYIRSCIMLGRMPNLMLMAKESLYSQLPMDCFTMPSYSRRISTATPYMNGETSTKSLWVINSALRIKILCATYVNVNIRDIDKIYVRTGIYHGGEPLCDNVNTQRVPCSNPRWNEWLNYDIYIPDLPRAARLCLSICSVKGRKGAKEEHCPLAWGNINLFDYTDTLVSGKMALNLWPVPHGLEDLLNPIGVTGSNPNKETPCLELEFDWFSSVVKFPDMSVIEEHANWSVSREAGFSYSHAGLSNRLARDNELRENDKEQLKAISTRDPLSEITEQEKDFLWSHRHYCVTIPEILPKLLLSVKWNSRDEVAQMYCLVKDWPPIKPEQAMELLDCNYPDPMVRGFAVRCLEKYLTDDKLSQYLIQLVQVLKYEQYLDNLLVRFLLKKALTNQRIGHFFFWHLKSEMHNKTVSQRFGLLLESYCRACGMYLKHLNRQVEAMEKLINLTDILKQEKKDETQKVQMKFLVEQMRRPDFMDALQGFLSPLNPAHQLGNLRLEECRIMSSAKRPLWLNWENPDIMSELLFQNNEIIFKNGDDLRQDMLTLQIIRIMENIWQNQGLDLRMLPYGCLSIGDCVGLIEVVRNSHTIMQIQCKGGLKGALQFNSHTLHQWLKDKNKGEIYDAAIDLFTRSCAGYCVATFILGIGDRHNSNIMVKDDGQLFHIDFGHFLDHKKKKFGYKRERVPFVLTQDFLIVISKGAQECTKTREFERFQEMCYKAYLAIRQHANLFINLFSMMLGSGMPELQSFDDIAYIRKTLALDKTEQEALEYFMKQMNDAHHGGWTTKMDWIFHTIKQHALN
For data set [2], the target named is Phosphatidylinositol 4,5-bisphosphate 3-kinase catalytic subunit gamma isoform (Homo sapiens, UniProt P48736). In words: Inhibition of human recombinant PI3Kgamma using PIP2 by Kinase-Glo Plus assay.
Data set [3] has as its target T2, Phosphatidylinositol 4,5-bisphosphate 3-kinase catalytic subunit delta isoform (Homo sapiens, UniProt O00329).
T2 sequence (O00329 whole entry): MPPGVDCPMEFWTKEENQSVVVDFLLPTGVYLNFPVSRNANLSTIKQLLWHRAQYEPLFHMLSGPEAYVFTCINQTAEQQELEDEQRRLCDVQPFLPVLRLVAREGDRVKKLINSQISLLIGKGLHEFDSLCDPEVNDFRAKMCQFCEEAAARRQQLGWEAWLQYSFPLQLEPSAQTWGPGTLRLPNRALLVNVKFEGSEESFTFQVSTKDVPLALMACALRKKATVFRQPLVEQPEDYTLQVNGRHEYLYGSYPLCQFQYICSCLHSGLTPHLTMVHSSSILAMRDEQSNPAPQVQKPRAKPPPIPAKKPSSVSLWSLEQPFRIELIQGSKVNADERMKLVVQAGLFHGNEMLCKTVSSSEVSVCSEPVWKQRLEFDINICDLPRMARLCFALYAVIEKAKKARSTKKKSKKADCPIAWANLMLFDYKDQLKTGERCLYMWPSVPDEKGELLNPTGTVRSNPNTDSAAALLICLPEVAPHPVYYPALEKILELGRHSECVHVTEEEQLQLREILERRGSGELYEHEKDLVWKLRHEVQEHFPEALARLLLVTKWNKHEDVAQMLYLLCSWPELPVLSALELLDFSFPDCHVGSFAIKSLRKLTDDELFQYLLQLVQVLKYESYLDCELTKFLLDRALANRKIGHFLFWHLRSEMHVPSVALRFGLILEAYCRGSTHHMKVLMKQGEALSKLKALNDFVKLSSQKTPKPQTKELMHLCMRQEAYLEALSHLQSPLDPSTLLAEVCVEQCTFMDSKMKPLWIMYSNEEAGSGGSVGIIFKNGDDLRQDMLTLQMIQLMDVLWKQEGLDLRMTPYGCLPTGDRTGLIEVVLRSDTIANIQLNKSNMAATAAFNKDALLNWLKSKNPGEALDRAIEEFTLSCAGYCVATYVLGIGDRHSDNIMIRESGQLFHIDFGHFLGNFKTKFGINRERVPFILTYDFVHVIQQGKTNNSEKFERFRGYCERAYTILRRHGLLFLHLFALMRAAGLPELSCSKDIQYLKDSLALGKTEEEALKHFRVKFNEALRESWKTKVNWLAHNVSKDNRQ
In words: Inhibition of human recombinant PI3Kdelta using PIP2 by Kinase-Glo Plus assay.

Data set [4] has as its target T1, Phosphatidylinositol 4,5-bisphosphate 3-kinase catalytic subunit alpha isoform. In words: Inhibition of PI3Kalpha mutant human BT474 cells assessed as inhibition of Akt phosphorylation at […] after 2 hrs. The note with it: bt-474. It counts as cell-based.
Target sequence in this assay (P42336 whole entry, looked up, canonical isoform): as the sequence (P42336 whole entry, canonical isoform) above
A short description of data set [5]: Lipophilicity, log D of the compound at pH 7.4 by shake-flask method. It counts as physicochemical. Conditions: buffer.
Data set [6] in a line: Intrinsic clearance in cryopreserved human hepatocytes measured per 10^6 cells. It counts as ADME, cell-based, Hepatocyte. The note with it: read-out: CLH.
A short description of data set [7]: Apparent permeability from apical to basolateral side of human Caco2 cells. It counts as ADME, cell-based. Conditions: Caco-2, read-out: permeability. (In general: Passage across Caco-2 layers is used to estimate intestinal permeability.)
Data set [8] deals with T3, Voltage-gated inwardly rectifying potassium channel KCNH2 (Homo sapiens, UniProt Q12809). In words: Inhibition of human ERG channel at 100 uM.
T3 sequence (Q12809 whole entry, canonical isoform): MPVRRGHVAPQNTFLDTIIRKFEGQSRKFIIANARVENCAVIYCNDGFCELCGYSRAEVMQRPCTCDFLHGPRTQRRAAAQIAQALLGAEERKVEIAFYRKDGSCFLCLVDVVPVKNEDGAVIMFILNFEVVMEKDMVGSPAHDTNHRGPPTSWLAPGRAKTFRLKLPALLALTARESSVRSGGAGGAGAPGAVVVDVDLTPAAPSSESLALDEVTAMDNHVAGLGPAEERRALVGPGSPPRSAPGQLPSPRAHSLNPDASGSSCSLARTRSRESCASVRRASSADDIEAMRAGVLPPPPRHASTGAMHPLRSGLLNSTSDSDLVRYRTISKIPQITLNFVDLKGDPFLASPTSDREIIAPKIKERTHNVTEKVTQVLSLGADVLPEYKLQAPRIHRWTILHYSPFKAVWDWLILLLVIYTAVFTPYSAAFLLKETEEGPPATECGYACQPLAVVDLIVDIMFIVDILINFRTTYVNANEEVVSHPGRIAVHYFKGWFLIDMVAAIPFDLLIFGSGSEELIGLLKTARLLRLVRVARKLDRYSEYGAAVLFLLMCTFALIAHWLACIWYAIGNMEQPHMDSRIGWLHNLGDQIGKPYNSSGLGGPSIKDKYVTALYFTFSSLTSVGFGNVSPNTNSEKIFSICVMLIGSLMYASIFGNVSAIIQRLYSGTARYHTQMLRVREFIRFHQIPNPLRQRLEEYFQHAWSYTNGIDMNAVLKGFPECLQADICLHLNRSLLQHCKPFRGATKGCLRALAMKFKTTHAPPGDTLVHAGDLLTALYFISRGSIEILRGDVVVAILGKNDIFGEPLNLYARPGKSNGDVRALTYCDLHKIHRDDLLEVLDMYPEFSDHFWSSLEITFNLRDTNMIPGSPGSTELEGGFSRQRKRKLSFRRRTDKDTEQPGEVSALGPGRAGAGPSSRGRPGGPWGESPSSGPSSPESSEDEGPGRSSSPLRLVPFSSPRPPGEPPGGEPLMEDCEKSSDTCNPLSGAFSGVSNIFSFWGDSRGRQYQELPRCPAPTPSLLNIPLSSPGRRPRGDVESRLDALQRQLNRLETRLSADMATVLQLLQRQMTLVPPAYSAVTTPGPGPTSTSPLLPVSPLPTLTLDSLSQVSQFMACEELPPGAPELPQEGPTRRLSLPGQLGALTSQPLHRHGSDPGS
Data set [9] deals with T2, Phosphatidylinositol 4,5-bisphosphate 3-kinase catalytic subunit delta isoform. In words: Inhibition of PI3Kdelta in human Jeko B cells assessed as inhibition of Akt phosphorylation after 2 hrs. It is filed as cell-based.
Data set [10] concerns Mus musculus. In words: Inhibition of Akt phosphorylation at Ser473 in PTEN-deficient human PC3 cells xenograft mouse model at 100 mg/kg, po single dose measured up to 8 hrs. Conditions: PC-3. Details: dose 100 mg/kg. It is filed as functional, organism-based.
Data set [11] concerns PC-3. In words: Antitumor activity against human PC3 cells xenograft mouse model assessed as inhibition of tumor growth at 30 mg/kg, po bid in presence of 1-aminobenzotriazole. It is filed as functional, organism-based. Set-up: dose 30 mg/kg.
The subject of data set [12] is PC-3. In words: Antitumor activity against human PC3 cells xenograft mouse model assessed as inhibition of tumor growth at 60 mg/kg, po bid in presence of 1-aminobenzotriazole. Set-up: dose 60 mg/kg. It counts as functional, organism-based. For orientation: Xenograft models place foreign cells or tissue in a host animal.
A short description of data set [13]: AUC in mouse at 30 umol/kg, po administered as propylene glycol. It is filed as ADME, organism-based. Conditions: plasma.
Data set [14] in a line: Clearance in mouse at 5 umol/kg, iv administered as bolus dose in 20 to 30% DMA in PBS. Conditions: in vivo. It counts as ADME, organism-based.
Data set [15] in a line: Volume of distribution in mouse at 5 umol/kg, iv administered as bolus dose in 20 to 30% DMA in PBS. The note with it: in vivo. It counts as ADME, organism-based.
Data set [16] is described as follows: Oral bioavailability in mouse at 30 umol/kg administered as propylene glycol. The note with it: in vivo. It is filed as ADME, organism-based.
The test system of data set [17] is Mus musculus. In words: Intrinsic clearance in mouse at 5 umol/kg, iv administered as bolus dose in 20 to 30% DMA in PBS. It counts as ADME, organism-based. Conditions: in vivo.
Data set [18] can be described thus: Clearance in dog at 5 umol/kg, iv administered as bolus dose in 20 to 30% DMA in PBS. It counts as ADME, organism-based, Canis lupus familiaris. The note with it: in vivo.
Data set [19] can be described thus: Volume of distribution in dog at 5 umol/kg, iv administered as bolus dose in 20 to 30% DMA in PBS. It is filed as ADME, organism-based, Canis lupus familiaris. Conditions: in vivo.
Data set [20] can be described thus: Oral bioavailability in dog at 30 umol/kg administered as propylene glycol. It counts as ADME, organism-based, Canis lupus familiaris. Conditions: in vivo.
The test system of a further data set is Canis familiaris. In words: Intrinsic clearance in dog at 5 umol/kg, iv administered as bolus dose in 20 to 30% DMA in PBS. It is filed as ADME, organism-based, Canis lupus familiaris. The note with it: in vivo.
A short description of data set [21]: Fraction unbound in mouse plasma. It counts as ADME, cell-free.
Data set [22] is described as follows: Fraction unbound in dog plasma. It is filed as ADME, cell-free, Canis lupus familiaris.
Data set [23] can be described thus: Fraction unbound in human plasma. It is filed as ADME, cell-free.
Data set [24] deals with T3, Voltage-gated inwardly rectifying potassium channel KCNH2. In words: Inhibition of human ERG channel.
Data set [25] deals with T4, Phosphatidylinositol 4,5-bisphosphate 3-kinase catalytic subunit beta isoform (Homo sapiens, UniProt P42338). In words: Inhibition of human recombinant PI3Kbeta using PIP2 by Kinase-Glo Plus assay. A general note: In Kinase-Glo more light means more ATP remaining.
T4 sequence (P42338 whole entry, canonical isoform): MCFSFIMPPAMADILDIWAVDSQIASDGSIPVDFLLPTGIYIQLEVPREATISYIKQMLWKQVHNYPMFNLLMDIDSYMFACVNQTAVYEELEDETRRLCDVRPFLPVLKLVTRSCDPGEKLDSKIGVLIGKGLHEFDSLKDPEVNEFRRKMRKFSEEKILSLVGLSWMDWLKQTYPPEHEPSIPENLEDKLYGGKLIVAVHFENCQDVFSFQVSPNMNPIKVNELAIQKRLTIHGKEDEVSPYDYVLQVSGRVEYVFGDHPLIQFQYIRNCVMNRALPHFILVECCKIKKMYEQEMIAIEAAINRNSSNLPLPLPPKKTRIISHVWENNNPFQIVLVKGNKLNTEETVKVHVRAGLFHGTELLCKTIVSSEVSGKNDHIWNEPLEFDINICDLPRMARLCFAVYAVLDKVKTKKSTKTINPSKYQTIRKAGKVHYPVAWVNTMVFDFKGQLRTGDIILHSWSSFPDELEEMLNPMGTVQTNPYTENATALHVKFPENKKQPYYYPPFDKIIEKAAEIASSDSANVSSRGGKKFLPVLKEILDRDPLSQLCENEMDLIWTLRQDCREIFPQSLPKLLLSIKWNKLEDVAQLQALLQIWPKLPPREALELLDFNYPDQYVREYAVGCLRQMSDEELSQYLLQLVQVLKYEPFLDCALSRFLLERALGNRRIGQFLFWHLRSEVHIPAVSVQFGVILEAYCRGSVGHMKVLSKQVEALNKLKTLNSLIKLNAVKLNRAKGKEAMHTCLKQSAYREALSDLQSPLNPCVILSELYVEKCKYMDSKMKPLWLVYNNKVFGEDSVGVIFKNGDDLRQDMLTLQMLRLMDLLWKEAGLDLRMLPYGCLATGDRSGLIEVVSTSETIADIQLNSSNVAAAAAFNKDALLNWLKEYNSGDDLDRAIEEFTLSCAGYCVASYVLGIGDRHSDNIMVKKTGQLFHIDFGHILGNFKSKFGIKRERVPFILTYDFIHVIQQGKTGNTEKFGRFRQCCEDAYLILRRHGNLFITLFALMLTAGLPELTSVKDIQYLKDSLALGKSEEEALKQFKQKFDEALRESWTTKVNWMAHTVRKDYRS
In data set [26] the target is T4, Phosphatidylinositol 4,5-bisphosphate 3-kinase catalytic subunit beta isoform. In words: Inhibition of PI3Kbeta in PTEN-null human MDA-MB-468 cells assessed as inhibition of Akt phosphorylation after 2 hrs. It is filed as cell-based.
The subject of a further data set is BT-474. In words: Selectivity ratio of IC50 for human PI3Kbeta in human MDA-MB-468 cells to IC50 for PI3Kalpha in human BT474 cells. It is filed as cell-based.

Calls of active or inactive are those of the source. No cut-off for these calls is given here.

Sequence of Phosphatidylinositol 4,5-bisphosphate 3-kinase catalytic subunit gamma isoform (P48736 whole entry, canonical isoform): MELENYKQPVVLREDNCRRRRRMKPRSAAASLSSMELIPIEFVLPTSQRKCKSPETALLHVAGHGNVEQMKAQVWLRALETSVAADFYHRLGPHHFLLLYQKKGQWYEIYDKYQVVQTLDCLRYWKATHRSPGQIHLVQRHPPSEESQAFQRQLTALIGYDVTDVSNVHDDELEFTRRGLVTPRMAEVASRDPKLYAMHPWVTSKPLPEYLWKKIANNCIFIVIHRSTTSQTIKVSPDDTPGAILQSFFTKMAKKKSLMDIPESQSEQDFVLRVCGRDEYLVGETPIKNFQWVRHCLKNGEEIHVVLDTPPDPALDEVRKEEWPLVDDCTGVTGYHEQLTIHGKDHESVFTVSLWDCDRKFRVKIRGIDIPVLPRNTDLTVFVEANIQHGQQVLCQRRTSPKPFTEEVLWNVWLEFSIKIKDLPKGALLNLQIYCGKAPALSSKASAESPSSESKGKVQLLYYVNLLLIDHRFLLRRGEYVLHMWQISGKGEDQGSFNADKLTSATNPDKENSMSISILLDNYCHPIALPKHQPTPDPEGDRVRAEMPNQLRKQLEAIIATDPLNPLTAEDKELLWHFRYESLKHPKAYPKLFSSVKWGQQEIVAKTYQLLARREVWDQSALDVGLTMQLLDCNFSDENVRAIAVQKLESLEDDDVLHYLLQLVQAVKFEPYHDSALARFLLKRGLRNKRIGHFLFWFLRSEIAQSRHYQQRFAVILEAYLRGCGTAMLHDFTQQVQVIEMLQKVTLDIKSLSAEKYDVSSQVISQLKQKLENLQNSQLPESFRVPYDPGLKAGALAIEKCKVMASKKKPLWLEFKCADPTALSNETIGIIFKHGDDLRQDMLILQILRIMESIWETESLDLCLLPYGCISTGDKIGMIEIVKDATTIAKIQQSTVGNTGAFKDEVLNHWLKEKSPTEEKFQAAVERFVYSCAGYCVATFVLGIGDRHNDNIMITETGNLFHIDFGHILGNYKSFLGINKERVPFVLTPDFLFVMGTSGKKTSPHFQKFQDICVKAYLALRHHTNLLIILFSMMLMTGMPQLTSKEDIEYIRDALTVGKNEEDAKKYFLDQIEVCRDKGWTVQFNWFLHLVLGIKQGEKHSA

Broadly, the IC50 is the concentration at which inhibition is half-maximal. Usually logD stands for lipophilicity at a set pH, counting ionised and neutral species. Lower therefore signals lower lipophilicity. In general, AUC refers to concentration integrated over time. Lower therefore signals low exposure. As usually defined, the Vd is the apparent volume that relates the amount in the body to the concentration in plasma or blood. Low readings indicate confinement near the circulation, high ones extensive tissue distribution. One may read the bioavailability as the share of a dose that reaches the circulation, judged against a reference dose that is usually intravenous. Read a low bioavailability as little systemic uptake. One may read the fraction unbound as the share of the substance not bound to proteins or other matrix. For the compound `C[C@@H](Nc1cc(F)cc(F)c1)c1cc(C(=O)N(C)C)cc2c(=O)cc(N3CCOCC3)oc12` [AZD-8186], the IC50 in [1] came to 0.035 µM; in data set [2], 0.675 µM; in data set [3], 0.012 µM; in [4], 0.752 µM; in [9], 0.017 µM. Further, in data set [5], the logD was 2.3. In addition, the hepatocyte CLint in data set [6] was 4 µL/min/1e6 cells. Further, the Papp A→B in [7] is 80 nm/s. The “inhibition (INH)” value in [8] is recorded as “Not Active”. In addition, the inhibition result in the data set with Mus musculus [10], with PC-3 [11] and in the data set on PC-3 [12] was “Active” throughout. The same compound yielded an AUC in [13] of 1.2 µM·h. In addition, the clearance in data set [14] was found to be 4.62 L/h/kg; with Mus musculus [17] it was 4.38 L/h/kg; in [18], 2.16 L/h/kg; in the data set with Canis familiaris, 0.66 L/h/kg. The results for the Vd in data set [15] and in data set [19] were 1.3 L/kg and 2.2 L/kg, respectively. The bioavailability in [16] is 18%; in data set [20], 23%. The fraction unbound was 0.16 in [21], 0.31 in data set [22] and 0.19 in data set [23].

Regarding `C[C@H](c1cc(C(=O)N(C)C)cc2c(=O)cc(N3CCOCC3)oc12)N(C)c1cc(F)cc(F)c1`, the IC50 in [1] amounted to 0.28 µM; in data set [2], 3.5 µM; in data set [3], 0.073 µM; in [4] it was 3 µM; in data set [24], 19 µM. Further, the logD in data set [5] amounted to 2.4. For the same compound, in data set [6], the hepatocyte CLint is below 4 µL/min/1e6 cells. Besides, the Papp A→B in data set [7] worked out at 420 nm/s. Also, the AUC in data set [13] is 8.6 µM·h. The clearance in data set [14] turned out to be 2.04 L/h/kg; in the data set with Mus musculus [17], 2.22 L/h/kg; in data set [18], 1.62 L/h/kg; in the data set with Canis familiaris, 1.02 L/h/kg. Further, the Vd in [15] stood at 2 L/kg; in data set [19] it was 2.2 L/kg. Moreover, the results for the bioavailability in data set [16] and in data set [20] were 68% and 31%, respectively. In addition, the results for the fraction unbound in [21], in data set [22] and in data set [23] were 0.1, 0.16 and 0.12, respectively.

Take `CN(C)C(=O)c1cc(CNc2cc(F)cc(F)c2)c2oc(N3CCOCC3)cc(=O)c2c1`: the IC50 in data set [1] was 0.093 µM; in [25], 0.008 µM; in [2], 3.2 µM; in data set [3] it was 0.08 µM; in data set [4], 3.2 µM; in data set [26], 0.035 µM. Further, the log distribution coefficient (logD) in data set [5] worked out at 2.2. The hepatocyte CLint in data set [6] was below 3 µL/min/1e6 cells. In the data set with BT-474, the Ratio IC50 amounted to 100.

On to `C[C@H]1CN(c2cc(=O)c3cc(C(=O)N(C)C)cc([C@@H](C)Nc4cc(F)cc(F)c4)c3o2)CCO1`, for which the IC50 in data set [1] is 0.012 µM; in data set [25] it was 0.004 µM; in data set [2], 0.14 µM; in [3] it was 0.012 µM; in data set [4], 0.11 µM; in data set [26], 0.0004 µM. The compound further yielded a logD in data set [5] of 2.7. Further, in data set [6], the hepatocyte CLint is below 3 µL/min/1e6 cells. The Papp A→B in data set [7] came out at 140 nm/s. Moreover, in data set [13], the AUC was determined as 3.3 µM·h. The clearance was 4.56 L/h/kg in data set [14], 3.18 L/h/kg with Mus musculus [17], 4.14 L/h/kg in data set [18] and 0.9 L/h/kg with Canis familiaris. Further, the Vd in data set [15] worked out at 2.2 L/kg; in data set [19], 2.5 L/kg. In addition, the bioavailability in data set [16] was 50%; in [20] it was 5%. The fraction unbound is 0.12 in data set [21], 0.2 in data set [22] and 0.14 in data set [23].

Source of the values: ChEMBL document CHEMBL3407416, “Discovery of (R)-8-(1-(3,5-difluorophenylamino)ethyl)-N,N-dimethyl-2-morpholino-4-oxo-4H-chromene-6-carboxamide (AZD8186): a potent and selective inhibitor of PI3Kβ and PI3Kδ for the treatment of PTEN-deficient cancers” (J Med Chem, 2015).
